Holding throughout (assay): NCI-60 cell line screen, 48 h
The test system of test [1] is BT-549 breast.
Test [2] concerns CAKI-1 renal.
The test system of test [3] is EKVX NSCLC.
Test [4] deals with HCT-116 colon.
Test [5] deals with LOX IMVI melanoma.
The test system of test [6] is NCI-H460 lung.
The subject of test [7] is OVCAR-3 ovarian.
Test [8] has as its system RXF 393 renal.
Test [9] deals with SK-MEL-2 melanoma.
Test [10] deals with SK-OV-3 ovarian.

The structures appear in SMILES notation.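 Step 1: Grow cells in 96-well plates. Step 2: Expose to compound for 48 hours at 5 concentrations. Step 3: Interpolate endpoints linearly; if unreached, use highest concentration. GI50 = concentration required for 50% inhibition of growth. TGI denotes the concentration required for complete inhibition of growth.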 Bounds are passed on as bounds.

`CCn1c(-c2nonc2N)nc2cncc(C(=O)NCCNC)c21`: the GI50 in test [1] was 3.13 µM; in test [2] it was 1.56 µM; in test [3], 0.903 µM; in test [4], 2.78 µM; in [5], > 25 µM; in test [6] it was 8.59 µM. Besides, the GI50 in test [7] is > 23.9 µM; in test [8], 2.57 µM; in [9], 5.27 µM; in [10], 17.3 µM. Further, the TGI is > 22.3 µM in test [1]; 14.4 µM in test [2]; > 25 µM in test [3]; > 25 µM in test [4]; > 25 µM in test [5]; > 25 µM in test [6]. The TGI in [7], in test [8], in test [9] and in test [10] was > 25 µM in each case.

Consider `CCC(c1ccc2cc(O)ccc2c1)C(C)(C)C(=O)O` (stereo not given), for which the TGI in test [1], in test [2], in test [3], in test [4], in [5] and in test [6] was > 100 µM each time. The TGI in test [7], in [8], in test [9] and in test [10] was > 100 µM throughout.

For `COc1cc(C2CC(c3ccccc3)=NN2C(C)=O)cc(OC)c1OC` (stereo not given), the GI50 is 6.37 µM in test [1]; 2.45 µM in test [2]; 6.41 µM in test [3]; 2.83 µM in test [4]; 6.38 µM in test [5]; 3.55 µM in test [6]. Further, the GI50 in test [7] was 2.11 µM; in test [8] it was 4.14 µM; in [9], 4.02 µM; in test [10], 3.91 µM. The TGI in [1] was > 100 µM; in [2] it was > 100 µM; in test [3] it was > 100 µM; in test [4], > 100 µM; in [5], > 100 µM; in test [6], > 51 µM. In addition, the TGI in test [7] is 6.52 µM; in [8], > 48.2 µM; in test [9], > 100 µM; in test [10] it was > 100 µM.

For `CC(C(=O)O)/C(=C\c1ccc2c(c1)OCO2)C(=O)O` (stereo not given), the TGI in test [1], in [2], in test [3], in test [4], in test [5] and in test [6] was > 100 µM each time. Moreover, the TGI in [7], in test [8], in test [9] and in test [10] was > 100 µM throughout.

For the molecule `CC1OC(n2c3ccccc3c3c4c(c5c6ccccc6[nH]c5c32)C(=O)N(CCN2CCOCC2)C4=O)CC(O)C1O` (stereo not given), the GI50 in [1] is 2.83 µM; in [2], 1.44 µM; in test [3], 6.14 µM; in [4], 1.33 µM; in test [5], 0.962 µM; in test [6], 0.734 µM. Also, the GI50 was 4.36 µM in test [7], 2.82 µM in [8], 10.6 µM in test [9] and 2.29 µM in test [10]. Further, the TGI in test [1] was determined as 12.1 µM; in [2], 6.37 µM; in [3] it was 17.7 µM; in [4] it was 6.92 µM; in [5] it was 6.12 µM; in test [6], 5.27 µM. Besides, the TGI in test [7] worked out at 12.2 µM; in test [8] it was 10.6 µM; in test [9], 22 µM; in test [10] it was 9.77 µM.

As to `COc1ccc2c(c1)/C(=C\c1c(Cl)n(C)c3ccccc13)C(=O)N2`, the GI50 was 1.29 µM in test [1]; 1.1 µM in test [2]; 3.95 µM in test [3]; 1.29 µM in test [4]; 0.83 µM in test [5]; 0.459 µM in test [6]. Also, the GI50 in test [7] is 0.633 µM; in [8], 1.53 µM; in [9] it was 0.668 µM; in test [10] it was 0.86 µM. For the same molecule, the TGI is 16.4 µM in test [1]; 13.6 µM in test [2]; 24.4 µM in test [3]; > 28.6 µM in test [4]; > 100 µM in test [5]; 15.9 µM in test [6]. The TGI worked out at 1.91 µM in test [7], 8.23 µM in test [8], 31.4 µM in [9] and 14.5 µM in [10].

On to `O=C(CN1C(=O)S/C(=C\C(Cl)=C\c2ccccc2)C1=O)NCCc1ccc(O)cc1`, for which the GI50 is 2.03 µM in test [1]; 1.78 µM in test [2]; 2.04 µM in [3]; 1.42 µM in [4]; 1.42 µM in test [5]; 2 µM in test [6]. Besides, the GI50 is 1.69 µM in [7], 1.78 µM in [8], 2.64 µM in test [9] and 3.48 µM in [10]. The TGI in test [1] is 4.9 µM; in test [2], 3.76 µM; in test [3], 4.74 µM; in [4], 3.1 µM; in [5], 2.85 µM; in [6], 6.12 µM. Besides, the TGI in test [7] is 3.27 µM; in test [8], 3.5 µM; in test [9], 7.74 µM; in [10], > 100 µM.

With `C=CC[C@@H]1/C=C(\C)C[C@H](C)C[C@H](OC)[C@H]2O[C@@](O)(C(=O)C(=O)N3CCCC[C@H]3C(=O)O[C@H](/C(C)=C/C3CC[C@@H](O)[C@H](OC)C3)[C@H](C)[C@@H](O)CC1=O)[C@H](C)C[C@@H]2OC` (stereo not given in full), the GI50 in [1] was 10 µM; in [2], 12.9 µM; in test [3], 14.2 µM; in [4] it was 13.8 µM; in [5] it was 15 µM; in test [6], 13.7 µM. For the same molecule, the GI50 in test [7] is 14.2 µM; in [8], 13.6 µM; in [9], 17.4 µM; in test [10], 16.7 µM. Also, the TGI is 27.2 µM in test [1]; 33.4 µM in [2]; 34.5 µM in [3]; 26.7 µM in test [4]; 29.7 µM in test [5]; 27.9 µM in test [6]. For the same molecule, the TGI in test [7] amounted to 27.2 µM; in test [8], 27.3 µM; in test [9], 33.4 µM; in test [10] it was 31.2 µM.

Values taken from PubChem BioAssay (NCI).
